Several values for one entry are separate records, joined by “and”; a condition that tells them apart may be missing. Equal values may be shown once.
System: A498 complex spheroids with HUVEC/MSC, growth
Test: Anticancer human tumor A498 cell line growth inhibition [AhR];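 note: seven day exposure starting three days after spheroid seeding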;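 for viability, T/C: luminescence signal used as a surrogate for viable cells; luminescence viability scaled so 100% equals DMSO vehicle wells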
Conditions: for viability, T/C: stronger effect = lower value
In short: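 Spheroids combined tumor cells with HUVEC endothelial cells and human MSCs as stroma. AhR antagonists were paired with standard or investigational drugs, each dosed in half-log steps down from near clinical Cmax, or from 10 microM where Cmax was unknown.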

SMILES: O=C(C=Cn1cnc(-c2cc(C(F)(F)F)cc(C(F)(F)F)c2)n1)NNc1cnccn1 + CC(CO)NC(=O)c1cc(-c2ccc(Cl)cc2)nn(-c2cnn(C)c2)c1=O
- IC50 (curve of first compound, second compound 0.1 µM): 0.0585 µM
- IC50 (curve of first compound, second compound 0.316 µM): 0.0516 µM
- IC50 (curve of first compound, second compound 1 µM): 0.0458 µM
- IC50 (curve of first compound, second compound 3.16 µM): 0.0327 µM
- IC50 (curve of first compound, second compound 10 µM): 0.00975 µM
- viability, T/C (second compound 0.1 µM, first compound 0.00949 µM): 72.7%
- viability, T/C (second compound 0.1 µM, first compound 0.03 µM): 69%
- viability, T/C (second compound 0.1 µM, first compound 0.0949 µM): 36.2%
- viability, T/C (second compound 0.1 µM, first compound 0.3 µM): 23.2%
- viability, T/C (second compound 0.1 µM, first compound 0.949 µM): 22.3%
- viability, T/C (second compound 0.1 µM, first compound 3 µM): 17.8%
- viability, T/C (second compound 0.316 µM, first compound 0.00949 µM): 74.8%
- viability, T/C (second compound 0.316 µM, first compound 0.03 µM): 62.7%
- viability, T/C (second compound 0.316 µM, first compound 0.0949 µM): 35.4%
- viability, T/C (second compound 0.316 µM, first compound 0.3 µM): 23.1%
- viability, T/C (second compound 0.316 µM, first compound 0.949 µM): 17.9%
- viability, T/C (second compound 0.316 µM, first compound 3 µM): 14.7%
- viability, T/C (second compound 1 µM, first compound 0.00949 µM): 67.2%
- viability, T/C (second compound 1 µM, first compound 0.03 µM): 58.8%
- viability, T/C (second compound 1 µM, first compound 0.0949 µM): 35.3%
- viability, T/C (second compound 1 µM, first compound 0.3 µM): 23.1%
- viability, T/C (second compound 1 µM, first compound 0.949 µM): 18.5%
- viability, T/C (second compound 1 µM, first compound 3 µM): 16.7%
- viability, T/C (second compound 3.16 µM, first compound 0.00949 µM): 61.3%
- viability, T/C (second compound 3.16 µM, first compound 0.03 µM): 51.4%
- viability, T/C (second compound 3.16 µM, first compound 0.0949 µM): 32.1%
- viability, T/C (second compound 3.16 µM, first compound 0.3 µM): 20.7%
- viability, T/C (second compound 3.16 µM, first compound 0.949 µM): 15.7%
- viability, T/C (second compound 3.16 µM, first compound 3 µM): 18.4%
- viability, T/C (second compound 10 µM, first compound 0.00949 µM): 49.9%
- viability, T/C (second compound 10 µM, first compound 0.03 µM): 46.5%
- viability, T/C (second compound 10 µM, first compound 0.0949 µM): 31.2%
- viability, T/C (second compound 10 µM, first compound 0.3 µM): 20.9%
- viability, T/C (second compound 10 µM, first compound 0.949 µM): 18.5%
- viability, T/C (second compound 10 µM, first compound 3 µM): 17.4%

SMILES: Nc1ccccc1NC(=O)c1ccc(CNC(=O)OCc2cccnc2)cc1
- viability, T/C (compound 0.0316 µM): 83.7% and 98.2% and 88.8%
- viability, T/C (compound 0.1 µM): 83.4% and 95.8% and 93.6%
- viability, T/C (compound 0.316 µM): 88.2% and 84.4% and 77.7%
- viability, T/C (compound 1 µM): 61.2% and 70.2% and 50.5%
- viability, T/C (compound 3.16 µM): 21.5% and 29.6% and 23.1%
- viability, T/C (compound 10 µM): 2.22% and 2% and 2.21%
- IC50 (curve of compound): 1.43 µM and 1.74 µM and 1.09 µM

SMILES: COc1cc(C2c3cc4c(cc3C(OC3OC5COC(C)OC5C(O)C3O)C3COC(=O)C23)OCO4)cc(OC)c1O (stereo not drawn)
- viability, T/C (compound 0.0316 µM): 93% and 80.8% and 89.6%
- viability, T/C (compound 0.1 µM): 85.5% and 80.2% and 81.8%
- viability, T/C (compound 0.316 µM): 78.7% and 63.3% and 72.5%
- viability, T/C (compound 1 µM): 71.5% and 64% and 69.3%
- viability, T/C (compound 3.16 µM): 66.6% and 52.6% and 68.2%
- viability, T/C (compound 10 µM): 51.8% and 40% and 56.3%
- IC50 (curve of compound): > 10 µM and 3.71 µM

SMILES: O=C(C=Cc1cccc(S(=O)(=O)Nc2ccccc2)c1)NO
- viability, T/C (compound 0.0316 µM): 96.9% and 99.7% and 91.8%
- viability, T/C (compound 0.1 µM): 97.1% and 90.4% and 87.2%
- viability, T/C (compound 0.316 µM): 77.8% and 90.1% and 67.2%
- viability, T/C (compound 1 µM): 56.2% and 65.4% and 52.6%
- viability, T/C (compound 3.16 µM): 45.1% and 51.9% and 33.4%
- viability, T/C (compound 10 µM): 16.7% and 20.2% and 6.75%
- IC50 (curve of compound): 1.87 µM and 3.1 µM and 1.18 µM

SMILES: CC1(C)CCC(CN2CCN(c3ccc(C(=O)NS(=O)(=O)c4ccc(NCC5CCOCC5)c([N+](=O)[O-])c4)c(Oc4cnc5[nH]ccc5c4)c3)CC2)=C(c2ccc(Cl)cc2)C1
- viability, T/C (compound 0.0316 µM): 99.2% and 106% and 101%
- viability, T/C (compound 0.1 µM): 115% and 103% and 98.6%
- viability, T/C (compound 0.316 µM): 96.3% and 101% and 95.3%
- viability, T/C (compound 1 µM): 86.8% and 94.5% and 92.4%
- viability, T/C (compound 3.16 µM): 80.8% and 86% and 84.5%
- viability, T/C (compound 10 µM): 28.3% and 56.8% and 25.5%
- IC50 (curve of compound): 6.01 µM and > 10 µM and 6.17 µM

From PubChem BioAssay AID1919007 (Molecular Pharmacology Branch, DTP, NCI, 2023)
